Like-named read-outs stand apart in the source and are kept apart here.
Test system: T1, IiOMT2
T1 construct: N-terminal His6-SUMO tag kept (pE-SUMO), E. coli Rosetta (DE3), Ni-NTA
Test: O-methyltransferase assay, UPLC, Michaelis-Menten fit
Type: biochemical, Isatis indigotica
Details: 480 μM SAM, Tris-HCl pH 9.0, 45 °C
Description: O-methyltransferase assay, UPLC, Michaelis-Menten fit on IiOMT2

| Km (read-out: Isoorientin / IiOMT2) [µM] | Compound | Km (read-out: Luteolin / IiOMT2) [µM] |
| --- | --- | --- |
| – | O=c1cc(-c2ccc(O)c(O)c2)oc2cc(O)cc(O)c12 [compound 2, luteolin] | 77 ± 12.6 |
| 62.1 ± 16.1 | O=c1cc(-c2ccc(O)c(O)c2)oc2cc(O)c([C@@H]3O[C@H](CO)[C@@H](O)[C@H](O)[C@H]3O)c(O)c12 [compound 1, isoorientin] | – |
